Assays:
[1] = tested on: Pasteurella piscicida (P.pis) No. 2; assay: In vitro sensitivity test; format: cell-based; settings: 25°C, 40 to 48 hours
Outline: (§1)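 Bacteria were of animal origin. MS strains were grown by liquid dilution in Frey medium with 12 % pig-serum and 0.01 % βNAD at 37°C for 7 days. S.au was tested by agar dilution on Mueller Hinton agar, 37°C for 20 to 24 hours. P.pis was grown on 1.5 % NaCl heart infusion agar at 25°C for 40 to 48 hours.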

[2] = tested on: Streptococcus sp (Str.sp) SNO6119; assay: In vitro sensitivity test; format: cell-based; settings: 25°C, 40 to 48 hours
[3] = tested on: Mycoplasma hyopneumoniae (Mh) ST-11; assay: In vitro sensitivity test (liquid dilution method); format: cell-based; settings: 37°C, 7 days
[4] = tested on: Mycoplasma gallisepticum (MG) T-7-T, TS-resistant strain isolated from the field; assay: In vitro sensitivity test (liquid dilution method); format: cell-based; settings: 37°C, 7 days
[5] = tested on: Mycoplasma synoviae (MS) F10-2as; assay: In vitro sensitivity test (liquid dilution method); format: cell-based; settings: 37°C, 7 days
Outline: as §1

[6] = tested on: Mycoplasma synoviae (MS) 1853; assay: In vitro sensitivity test (liquid dilution method); format: cell-based; settings: 37°C, 7 days
Outline: as §1

[7] = tested on: Mycoplasma gallisepticum (MG) S6; assay: In vitro sensitivity test (liquid dilution method); format: cell-based; settings: 37°C, 7 days
[8] = tested on: H.pp (otherwise called Actinobacillus pleuropneumoniae) strain M-1; assay: Experimental H.pp infection to pig, through injection; format: in vivo; settings: injection to thigh muscle one time, Dose 5 mg/kg; dissection 6 days after inoculation
Protocol: In these experiments, the compound (I) was applied to the designated animals by (1) oral administration, (2) incorporation into baits and (3) intramuscular injection, the details of which are explained below.
(3) Preparation of the MG infected fowls was performed in the same manner as in (1) above. Infection of H.pp (otherwise called Actinobacillus pleuropneumoniae) to cause pleuropneumonia in pig was performed by inoculating 5 ml of a fresh cultured strain (i.e. M-1) of H.pp to each nasopharyngeal of some 45 days pigs, each weighing 4 to 9 kg (4 to 5 pigs/group), followed by injection of the test compounds to each thigh muscle at a designated volume one time. Pigs were dissected 6 days after the inoculation. The evaluation of the antimicrobial activity was made by observation of the pneumonia symptomes in air sacs, number of dead body and degree of nodosity in air sacks on dissection.

[9] = tested on: Hemophilus pleuropneumonia (H.pp) M-1; assay: In vitro sensitivity test (agar dilution method); format: cell-based; settings: 37°C, 20 hours, 10 % CO₂
[10] = tested on: Hemophilus paragallinarum (H.pg) 221; assay: In vitro sensitivity test (agar dilution method); format: cell-based; settings: agar dilution, 37°C, 20 hours, 10 % CO₂
[11] = tested on: Escherichia coli (E.coli) E-17, chicken-origin strain isolated from the field; assay: In vitro sensitivity test (agar dilution method); format: cell-based; settings: 37°C, 20 to 24 hours
Outline: (§2)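 Read-out is visual growth after incubation. Conditions were 37°C for 7 days in Frey medium (12 % pig-serum, 0.01 % βNAD; liquid dilution) for MS, and 37°C for 20 to 24 hours on Mueller Hinton agar for S.au. P.pis used 25°C, 40 to 48 hours, on 1.5 % NaCl heart infusion agar.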

[12] = tested on: Bordetella bronchiseptica (B.br) ABU-1; assay: In vitro sensitivity test (agar dilution method); format: cell-based; settings: 37°C, 20 to 24 hours
[13] = tested on: Escherichia coli (E.coli) JC-2; assay: In vitro sensitivity test (agar dilution method); format: cell-based; settings: 37°C, 20 to 24 hours
[14] = tested on: Hemophilus paragallinarum (H.pg) S-1; assay: In vitro sensitivity test (agar dilution method); format: cell-based; settings: agar dilution, 37°C, 20 hours, 10 % CO₂
[15] = tested on: Staphylococcus aureus (S.au) 209P; assay: In vitro sensitivity test (agar dilution method); format: cell-based; settings: 37°C, 20 to 24 hours
Outline: as §2

[16] = tested on: Salmonella typhimurium (S.typhi) 13311; assay: In vitro sensitivity test (agar dilution method); format: cell-based; settings: 37°C, 20 to 24 hours
[17] = tested on: TS-resistant MG; assay: Experimental MG infection to chicken, through bait; format: in vivo; settings: 9-days chicken; for Number of infected fowl/Number of fowl tested: 6.6 x 10³ CFU/fowl, dissection 6th day after inoculation; for Number of fowl having air sack lesions / Infectious index Left air sack + / Infectious index Left air sack ++ / Infectious index Left air sack +++ / Infectious index Left air sack - / Infectious index Right air sack + / Infectious index Right air sack ++ / Infectious index Right air sack +++ / Infectious index Right air sack -: 1.8 x 10³ CFU/fowl; for Infectious index Left air sack + / Infectious index Left air sack ++ / Infectious index Left air sack +++ / Infectious index Left air sack - / Infectious index Right air sack + / Infectious index Right air sack ++ / Infectious index Right air sack +++ / Infectious index Right air sack -: count of fowl

Cl.Nc1c(F)c(N2C[C@@H]3CC[C@@H](N)[C@@H]3C2)c(F)c2c1c(=O)c(C(=O)O)cn2C1CC1 (relative stereo) [I-16]
In vitro Sensitivity Test P.pis No. 2 [1]: 0.39 µg/mL
In vitro Sensitivity Test Str.sp SNO6119 [2]: 0.39 µg/mL
In vitro Sensitivity Test Mh ST-11 [3]: <0.025 µg/mL
In vitro Sensitivity Test MG T-7-T [4]: 0.00313 µg/mL
In vitro Sensitivity Test MS F10-2as [5]: 0.2 µg/ml
In vitro Sensitivity Test MS 1853 [6]: 0.39 µg/mL
In vitro Sensitivity Test MG S6 [7]: <0.0313 µg/mL
Number of pig having nodi/Number of pig tested [8]: 0/4
In vitro Sensitivity Test H.pp M-1 [9]: 0.2 µg/mL
In vitro Sensitivity Test H.pg 221 [10]: 0.2 µg/mL
In vitro Sensitivity Test E.coli E-17 [11]: 0.025 µg/ml
In vitro Sensitivity Test B.br ABU-1 [12]: 1.56 µg/mL
In vitro Sensitivity Test E.coli JC-2 [13]: 0.05 µg/mL
In vitro Sensitivity Test H.pg S-1 [14]: 0.2 µg/mL
In vitro Sensitivity Test S.au 209P [15]: 0.025 µg/mL
In vitro Sensitivity Test S.typhi 13311 [16]: 0.05 µg/mL
Number of infected fowl/Number of fowl tested ([17]; bait 3.13 ppm/Day): 2/7
Number of fowl having air sack lesions ([17]; bait 15.6 ppm/Day): 3
Number of fowl having air sack lesions ([17]; bait 31.3 ppm/Day): 3
Number of fowl having air sack lesions ([17]; bait 62.5 ppm/Day): 0
Number of infected fowl/Number of fowl tested ([17]; bait 62.5 ppm/Day): 0/7
Number of infected fowl/Number of fowl tested ([17]; bait 125 ppm/Day): 0/7
Infectious index Left air sack + ([17]; bait 15.6 ppm/Day): 0
Infectious index Left air sack ++ ([17]; bait 15.6 ppm/Day): 0
Infectious index Left air sack +++ ([17]; bait 15.6 ppm/Day): 0
Infectious index Left air sack - ([17]; bait 15.6 ppm/Day): 5
Infectious index Right air sack + ([17]; bait 15.6 ppm/Day): 1
Infectious index Right air sack ++ ([17]; bait 15.6 ppm/Day): 2
Infectious index Right air sack +++ ([17]; bait 15.6 ppm/Day): 0
Infectious index Right air sack - ([17]; bait 15.6 ppm/Day): 2
Infectious index Left air sack + ([17]; bait 31.3 ppm/Day): 0
Infectious index Left air sack ++ ([17]; bait 31.3 ppm/Day): 0
Infectious index Left air sack +++ ([17]; bait 31.3 ppm/Day): 0
Infectious index Left air sack - ([17]; bait 31.3 ppm/Day): 5
Infectious index Right air sack + ([17]; bait 31.3 ppm/Day): 1
Infectious index Right air sack ++ ([17]; bait 31.3 ppm/Day): 2
Infectious index Right air sack +++ ([17]; bait 31.3 ppm/Day): 0
Infectious index Right air sack - ([17]; bait 31.3 ppm/Day): 2
Infectious index Left air sack + ([17]; bait 62.5 ppm/Day): 0
Infectious index Left air sack ++ ([17]; bait 62.5 ppm/Day): 0
Infectious index Left air sack +++ ([17]; bait 62.5 ppm/Day): 0
Infectious index Left air sack - ([17]; bait 62.5 ppm/Day): 5
Infectious index Right air sack + ([17]; bait 62.5 ppm/Day): 0
Infectious index Right air sack ++ ([17]; bait 62.5 ppm/Day): 0
Infectious index Right air sack +++ ([17]; bait 62.5 ppm/Day): 0
Infectious index Right air sack - ([17]; bait 62.5 ppm/Day): 5
